One assay has as its target T1, CD80-CD28 interaction (Homo sapiens, UniProt P33681).
T1 construct: mouse Fab fragment (fusion partner)
T1 sequence (P33681 35-242 limits assumed): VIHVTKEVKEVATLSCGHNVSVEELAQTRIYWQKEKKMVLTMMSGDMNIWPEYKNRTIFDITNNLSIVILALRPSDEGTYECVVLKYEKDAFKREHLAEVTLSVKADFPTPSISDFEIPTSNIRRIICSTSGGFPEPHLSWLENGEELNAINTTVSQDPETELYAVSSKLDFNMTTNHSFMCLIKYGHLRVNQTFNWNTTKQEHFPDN
The experiment in a line: Homogeneous time resolved fluorescence (TR-Fret) assay, cell free. Format: biochemical. The settings on record: inhibition of the CD80-CD28 interaction; 4 hours at room temperature. The protocol: The compound was tested in a cell free homogenous time resolved fluorescence (HT-Fret) assay to determine their activity as an inhibitor of the CD80-CD28 interaction.
In the assay, europium and allophycocyanin (APC) are associated with CD28 and CD80 indirectly (through antibody linkers) to form a complex, which brings the europium and APC into close proximity to generate a signal. The complex comprises the following six proteins: fluorescent label 1, linker antibody 1, CD28 fusion protein, CD80 fusion protein, linker antibody 2, and fluorescent label 2. The table below describes these reagents in greater detail.
On formation of the complex, europium and APC are brought into proximity and a signal is generated.
Non-specific interaction was measured by substituting a mouse Fab fragment (C215) for the CD80 mouse Fab fragment fusion protein (1.9 μg/ml). The assay was carried out in black 384 well plates in a final volume of 30 μl. Assay buffer: 50 mM Tris-HCl, 150 mM NaCl pH7.8, containing 0.1% BSA (w/v) added just prior to use.
Compounds were added to the above reagents in a concentration series ranging between 100 μM-1.7 nM. The reaction was incubated for 4 hours at room temperature. Dual measurements were made using a Wallac Victor 1420 Multilabel Counter. […] Counts were automatically corrected for fluorescence crossover, quenching and background.

Assay [1] has as its target T2, Biotinylated human CD80 (hCD80-BT) (Homo sapiens, UniProt P33681).
T2 construct: biotin (biotinylation)
T2 sequence (P33681 35-242 limits assumed): T1 sequence (P33681 35-242 limits assumed)
The experiment in a line: BIAcore biomolecular interaction assay. The format is binding. Conditions: hCD80-BT immobilised on streptavidin-coated sensor chip; compound 1000 nM-0.05 nM. The text has this:
Biotinylated human CD80 (hCD80-BT) is a recombinant soluble form of a membrane bound receptor molecule (CD80) which binds to CD28 to initiate T cell activation. The interaction between CD80 and CD28 has been extensively investigated (Collins et al, 2002). Biotinlyated human HLA-A2-tax is the recombinant soluble form of a membrane bound receptor molecule used as a control protein, and is not expected to interact with the compound.
The BIAcore S51™ system was used for screening the compounds of Examples 1-4 above. A series S sensor chip CM5 was docked onto the BIAcore S51™. Streptavidin was coupled to the carboxymethyl surface using standard amine coupling. The chip surface was activated with 0.2M EDC/0.05M NHS, followed by binding of streptavidin (0.25 mg/ml in 10 mM sodium acetate pH 5.0) and saturation of unoccupied sites with […].
The BIAcore S51 sensor chip has two separate sensor spots for immobilisation of proteins. hCD80-BT was immobilised on the streptavidin-coated surface of one sensor spot until a response of approximately 3000 RU was observed. A protein to control for non-specific binding of the compound was immobilised on a second sensor spot. […]
BIAcore S51™ was run at a flow rate of 30 μl/min using running buffer. […] Data were recorded automatically and were analysed using BIAcore S51 Evaluation software.
In general terms: SPR reads the build-up and loss of mass on a sensor chip optically.

Molecules are shown by their SMILES.

Usually EC50 stands for the concentration at which the effect is half-maximal. Higher therefore signals weaker potency. The term Kd denotes the free concentration of one partner at which half of the binding sites on the other are occupied at equilibrium, for simple one-to-one binding.

As for `O=C(N[C@H]1CN2CCC1CC2)c1ccc(-n2[nH]c3c(nnc4c(F)ccc(F)c43)c2=O)cc1` [The compound, (R)—N-(1-Aza-bicyclo[2.2.2]oct-3-yl)-4-(6,9-difluoro-3-oxo-1,3-dihydro-pyrazolo[4,3-c]cinnolin-2-yl)-benzamide], the EC50 at CD80-CD28 interaction amounted to 820 pM. In assay [1], binding was characterised by a dissociation constant (Kd) of 350 pM.

For the origin of these results see US7932253B2, “Immunomodulating oxopyrrazolocinnolines as CD80 inhibitors” (MediGene AG, priority 2004, dated 2011).
